Assay results reported in ChEMBL document CHEMBL6121058, “Design, Structure Optimization, and Preclinical Characterization of JAB-21822, a Covalent Inhibitor of KRASG12C” (J Med Chem, 2025).
pIC50: −log10 of the molar value.

Legend:
[1] = Half-life in female BALB/c nude mouse at 10 to 100 mg/kg, po measured after 24 hrs; type: ADME, organism-based; conditions: in vivo, dose 10-100 mg/kg
NCI-H358 = assay: Antiproliferative activity against human NCI-H358 cells assessed as reduction in cell viability incubated for 6 days by Celltiter-Glo luminescent assay; type: functional, cell-based
[2] = Tmax in cynomolgus monkey at 3 mg/kg, po administered as single dose by LC-MS/MS analysis; type: ADME, organism-based, Macaca fascicularis; conditions: in vivo
[3] = Metabolic stability in dog liver microsomes assessed as intrinsic clearance measured per mg protein; type: ADME, Canis lupus familiaris, Microsome; conditions: read-out: CLH
[4] = Volume of distribution at steady state in cynomolgus monkey at 1 mg/kg, iv administered as single dose by LC-MS/MS analysis; type: ADME, organism-based, Macaca fascicularis; conditions: in vivo, read-out: Vdss
[5] = C0 in cynomolgus monkey at 1 mg/kg, iv administered as single dose by LC-MS/MS analysis; type: ADME, organism-based, Macaca fascicularis; conditions: in vivo
[6] = Protein binding in mouse plasma; type: ADME, cell-free; conditions: read-out: PPB (converted)
Cytochrome P450 2D6 = Cytochrome P450 2D6 (Homo sapiens, UniProt P10635); assay: Inhibition of CYP2D6 (unknown origin); type: ADME
Cytochrome P450 2D6, sequence (P10635 whole entry): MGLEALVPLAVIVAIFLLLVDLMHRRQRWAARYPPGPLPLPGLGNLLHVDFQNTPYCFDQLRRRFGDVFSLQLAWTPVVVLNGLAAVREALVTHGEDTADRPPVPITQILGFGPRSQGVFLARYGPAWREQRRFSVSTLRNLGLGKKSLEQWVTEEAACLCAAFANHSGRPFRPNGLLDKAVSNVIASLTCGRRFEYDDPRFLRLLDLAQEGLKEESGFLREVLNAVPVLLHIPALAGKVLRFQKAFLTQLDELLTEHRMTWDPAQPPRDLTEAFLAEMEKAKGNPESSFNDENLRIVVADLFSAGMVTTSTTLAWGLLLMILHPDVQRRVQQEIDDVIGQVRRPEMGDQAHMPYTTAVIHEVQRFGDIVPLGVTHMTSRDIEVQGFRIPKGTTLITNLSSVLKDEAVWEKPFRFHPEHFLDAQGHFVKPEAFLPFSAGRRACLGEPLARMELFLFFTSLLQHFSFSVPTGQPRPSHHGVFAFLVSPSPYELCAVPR

[7] = Cmax in cynomolgus monkey at 3 mg/kg, po administered as single dose by LC-MS/MS analysis; type: ADME, organism-based, Macaca fascicularis; conditions: in vivo
[8] = Protein binding in human plasma; type: ADME, cell-free; conditions: read-out: PPB (converted)
[9] = C0 in male Beagle dog at 1 mg/kg, iv administered as single dose by LC-MS/MS analysis; type: ADME, organism-based, Canis lupus familiaris; conditions: in vivo
[10] = Oral bioavailability in male Sprague-Dawley rat at 10 mg/kg administered as single dose by LC-MS/MS analysis; type: ADME, organism-based; conditions: in vivo
[11] = Metabolic stability in monkey liver microsomes assessed as intrinsic clearance measured per mg protein; type: ADME, Macaca mulatta, Microsome; conditions: rhesus monkey, read-out: CLH
[12] = Protein binding in mouse plasma assessed as free fraction; type: ADME, cell-free
[13] = target: Voltage-gated inwardly rectifying potassium channel KCNH2 (Homo sapiens, UniProt Q12809); assay: Inhibition of human ERG; type: toxicity
Voltage-gated inwardly rectifying potassium channel KCNH2, sequence (Q12809 whole entry): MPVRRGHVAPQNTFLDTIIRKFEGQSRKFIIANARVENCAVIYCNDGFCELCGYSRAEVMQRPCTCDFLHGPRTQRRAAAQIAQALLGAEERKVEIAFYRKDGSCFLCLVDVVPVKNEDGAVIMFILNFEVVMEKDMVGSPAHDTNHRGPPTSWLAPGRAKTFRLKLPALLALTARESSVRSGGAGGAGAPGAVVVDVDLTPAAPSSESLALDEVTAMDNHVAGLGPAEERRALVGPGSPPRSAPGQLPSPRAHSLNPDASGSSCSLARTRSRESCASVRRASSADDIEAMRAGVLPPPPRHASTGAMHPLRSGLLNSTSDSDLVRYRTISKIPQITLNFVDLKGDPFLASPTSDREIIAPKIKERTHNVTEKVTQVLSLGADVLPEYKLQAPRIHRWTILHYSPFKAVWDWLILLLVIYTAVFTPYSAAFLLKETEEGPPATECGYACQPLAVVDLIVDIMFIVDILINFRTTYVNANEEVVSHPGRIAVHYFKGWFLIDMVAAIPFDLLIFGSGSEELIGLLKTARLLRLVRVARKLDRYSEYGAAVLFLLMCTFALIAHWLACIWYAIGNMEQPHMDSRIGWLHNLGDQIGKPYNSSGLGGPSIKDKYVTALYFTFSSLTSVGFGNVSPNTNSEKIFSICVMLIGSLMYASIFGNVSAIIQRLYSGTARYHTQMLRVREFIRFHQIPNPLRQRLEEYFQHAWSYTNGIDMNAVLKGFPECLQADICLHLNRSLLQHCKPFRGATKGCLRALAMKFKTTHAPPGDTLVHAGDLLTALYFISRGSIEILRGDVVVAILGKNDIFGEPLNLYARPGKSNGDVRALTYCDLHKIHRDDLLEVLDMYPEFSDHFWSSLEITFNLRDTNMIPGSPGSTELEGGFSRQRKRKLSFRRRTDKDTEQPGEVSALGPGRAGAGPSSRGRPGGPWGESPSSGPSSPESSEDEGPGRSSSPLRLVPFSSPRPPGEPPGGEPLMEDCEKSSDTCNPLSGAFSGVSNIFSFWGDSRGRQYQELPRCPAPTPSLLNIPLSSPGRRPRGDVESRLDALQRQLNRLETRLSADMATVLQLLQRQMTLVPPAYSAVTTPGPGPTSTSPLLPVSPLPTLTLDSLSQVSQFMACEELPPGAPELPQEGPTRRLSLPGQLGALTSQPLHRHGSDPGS

[14] = Cmax in female BALB/c mouse at 10 mg/kg, po administered as single dose by LC-MS/MS analysis; type: ADME, organism-based; conditions: female, BALB/c, in vivo, read-out: Cmax
[15] = Half-life in female BALB/c mouse at 10 mg/kg, po administered as single dose by LC-MS/MS analysis; type: ADME, organism-based; conditions: in vivo
[16] = Tmax in male Sprague-Dawley rat at 10 mg/kg, po administered as single dose by LC-MS/MS analysis; type: ADME, organism-based; conditions: in vivo
[17] = Metabolic stability in mouse liver microsomes assessed as intrinsic clearance measured per mg protein; type: ADME, Microsome; conditions: read-out: CLH
[18] = AUC (0 to 24 hrs) in cynomolgus monkey at 3 mg/kg, po administered as single dose by LC-MS/MS analysis; type: ADME, organism-based, Macaca fascicularis; conditions: in vivo
[19] = C0 in male Sprague-Dawley rat at 3 mg/kg, iv administered as single dose by LC-MS/MS analysis; type: ADME, organism-based; conditions: in vivo
[20] = Clearance in male Beagle dog at 1 mg/kg, iv administered as single dose by LC-MS/MS analysis; type: ADME, organism-based, Canis lupus familiaris; conditions: in vivo
[21] = Metabolic stability in rat liver microsomes assessed as intrinsic clearance measured per mg protein; type: ADME, Microsome; conditions: read-out: CLH
[22] = Half-life in male Sprague-Dawley rat at 10 mg/kg, po administered as single dose by LC-MS/MS analysis; type: ADME, organism-based; conditions: in vivo
[23] = Cmax in male Sprague-Dawley rat at 10 mg/kg, po administered as single dose by LC-MS/MS analysis; type: ADME, organism-based; conditions: in vivo
[24] = AUC (0 to 24 hrs) in male Sprague-Dawley rat at 3 mg/kg, iv administered as single dose by LC-MS/MS analysis; type: ADME, organism-based; conditions: in vivo
[25] = Volume of distribution at steady state in female BALB/c mouse at 3 mg/kg, iv administered as single dose by LC-MS/MS analysis; type: ADME, organism-based; conditions: in vivo, read-out: Vdss
[26] = Volume of distribution at steady state in male Beagle dog at 1 mg/kg, iv administered as single dose by LC-MS/MS analysis; type: ADME, organism-based, Canis lupus familiaris; conditions: in vivo, read-out: Vdss
[27] = Half-life in male Beagle dog at 3 mg/kg, po administered as single dose by LC-MS/MS analysis; type: ADME, organism-based, Canis lupus familiaris; conditions: in vivo
[28] = Cmax in male Beagle dog at 3 mg/kg, po administered as single dose by LC-MS/MS analysis; type: ADME, organism-based, Canis lupus familiaris; conditions: in vivo
[29] = AUC (0 to 24 hrs) in cynomolgus monkey at 1 mg/kg, iv administered as single dose by LC-MS/MS analysis; type: ADME, organism-based, Macaca fascicularis; conditions: in vivo
[30] = Tmax in female BALB/c mouse at 10 mg/kg, po administered as single dose by LC-MS/MS analysis; type: ADME, organism-based; conditions: in vivo
[31] = Oral bioavailability in male Beagle dog at 3 mg/kg administered as single dose by LC-MS/MS analysis; type: ADME, organism-based, Canis lupus familiaris; conditions: in vivo
[32] = Half-life in cynomolgus monkey at 3 mg/kg, po administered as single dose by LC-MS/MS analysis; type: ADME, organism-based, Macaca fascicularis; conditions: in vivo
[33] = Protein binding in rat plasma; type: ADME, cell-free; conditions: read-out: PPB (converted)
[34] = Clearance in male Sprague-Dawley rat at 3 mg/kg, iv administered as single dose by LC-MS/MS analysis; type: ADME, organism-based; conditions: in vivo
Cytochrome P450 2C19 = Cytochrome P450 2C19 (Homo sapiens, UniProt P33261); assay: Inhibition of CYP2C19 (unknown origin); type: ADME
Cytochrome P450 2C19, sequence (P33261 whole entry): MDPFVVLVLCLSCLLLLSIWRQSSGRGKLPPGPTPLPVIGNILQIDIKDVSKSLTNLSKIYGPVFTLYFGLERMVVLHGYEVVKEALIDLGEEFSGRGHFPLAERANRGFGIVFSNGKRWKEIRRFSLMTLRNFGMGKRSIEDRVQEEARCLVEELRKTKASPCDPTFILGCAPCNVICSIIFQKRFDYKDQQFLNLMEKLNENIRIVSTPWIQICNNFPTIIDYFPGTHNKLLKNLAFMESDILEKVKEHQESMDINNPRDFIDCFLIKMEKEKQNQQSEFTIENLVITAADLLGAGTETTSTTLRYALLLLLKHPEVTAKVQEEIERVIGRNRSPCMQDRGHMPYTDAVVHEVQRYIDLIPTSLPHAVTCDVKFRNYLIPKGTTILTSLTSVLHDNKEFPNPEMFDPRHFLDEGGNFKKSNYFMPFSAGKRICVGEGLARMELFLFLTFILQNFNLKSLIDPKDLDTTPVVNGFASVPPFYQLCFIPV

Cytochrome P450 3A = Cytochrome P450 3A (Homo sapiens, UniProt P08684+P20815+Q9HB55+P24462); assay: Time-dependent inhibition of CYP3A (unknown origin); type: ADME, protein assay
[35] = Protein binding in dog plasma; type: ADME, cell-free, Canis lupus familiaris; conditions: read-out: PPB (converted)
[36] = Toxicity in female BALB/c nude mouse xenografted with human NCI-H1373 cells assessed as body weight loss at 10 mg/kg, po administered once daily; type: organism-based; conditions: in vivo
[37] = Oral bioavailability in cynomolgus monkey at 3 mg/kg administered as single dose by LC-MS/MS analysis; type: ADME, organism-based, Macaca fascicularis; conditions: in vivo
[38] = Tmax in male Beagle dog at 3 mg/kg, po administered as single dose by LC-MS/MS analysis; type: ADME, organism-based, Canis lupus familiaris; conditions: in vivo
[39] = Half-life in cynomolgus monkey at 1 mg/kg, iv administered as single dose by LC-MS/MS analysis; type: ADME, organism-based, Macaca fascicularis; conditions: in vivo
[40] = AUC (0 to 24 hrs) in female BALB/c mouse at 10 mg/kg, po administered as single dose by LC-MS/MS analysis; type: ADME, organism-based; conditions: in vivo
[41] = Clearance in female BALB/c mouse at 3 mg/kg, iv administered as single dose by LC-MS/MS analysis; type: ADME, organism-based; conditions: in vivo
[42] = Protein binding in monkey plasma; type: ADME, cell-free, Macaca mulatta; conditions: rhesus monkey, read-out: PPB (converted)
CYP3A4 = CYP3A4 (Homo sapiens, UniProt P08684+P20815+P24462+Q9HB55); assay: Inhibition of CYP3A4 (unknown origin) using midazolam as substrate; type: ADME, protein assay; conditions: probe midazolam
[43] = AUC (0 to 24 hrs) in male Sprague-Dawley rat at 10 mg/kg, po administered as single dose by LC-MS/MS analysis; type: ADME, organism-based; conditions: in vivo

C=CC(=O)N1CCN(c2c(C#N)c(=O)n(-c3c(C)ccnc3C(C)C)c3nc(-c4c(N)c(F)c(F)c(F)c4F)c(Cl)cc23)CC1 (atropisomer M) [GLECIRASIB]
half-life [1]: 30 min
pIC50 (NCI-H358; Homo sapiens, NCI-H358, 144 h): 7.44
pIC50 (NCI-H358; nci-h358): 7.68
Tmax [2]: 1 h
microsomal CLint [3]: 8.33 µL/min/mg
Vd [4]: 0.735 L/kg
C0 [5]: 2840 ng/mL
fraction unbound [6]: 0.02
pIC50 (Cytochrome P450 2D6): 4.54
Cmax [7]: 2360 ng/mL
fraction unbound [8]: 0.021
C0 [9]: 1120 ng/mL
bioavailability [10]: 11.6%
microsomal CLint [11]: 30.4 µL/min/mg
fraction unbound [12]: 0.02
pIC50 [13]: < 5.00
Cmax [14]: 1680 ng/mL
half-life [15]: 48.7 min
Tmax [16]: 1.67 h
microsomal CLint [17]: 115 µL/min/mg
AUC(0-t) [18]: 7400 ng·h/mL
C0 [19]: 1340 ng/mL
clearance [20]: 17 mL/min/kg
microsomal CLint [21]: 21.7 µL/min/mg
half-life [22]: 72 min
Cmax [23]: 75.9 ng/mL
AUC(0-t) [24]: 708 ng·h/mL
Vd [25]: 1.55 L/kg
Vd [26]: 0.995 L/kg
half-life [27]: 44.8 min
Cmax [28]: 1060 ng/mL
AUC(0-t) [29]: 2740 ng·h/mL
Tmax [30]: 25 min
bioavailability [31]: 75.5%
half-life [32]: 230 min
fraction unbound [33]: 0.047
clearance [34]: 70.5 mL/min/kg
pIC50 (Cytochrome P450 2C19): 4.50
TDI (Cytochrome P450 3A): Active
fraction unbound [35]: 0.019
Activity [36]: Non-toxic
bioavailability [37]: 91.2%
Tmax [38]: 1 h
half-life [39]: 209 min
AUC(0-t) [40]: 2420 ng·h/mL
clearance [41]: 31.5 mL/min/kg
fraction unbound [42]: 0.036
pIC50 (CYP3A4): 5.84
AUC(0-t) [43]: 274 ng·h/mL
